Paper PMC4239610, “A Peptide Derived from G0/G1 Switch Gene 2 Acts as Noncompetitive Inhibitor of Adipose Triglyceride Lipase” (The Journal of Biological Chemistry, 2014)
Blank lines part the entries; values can stand above or below the compound they belong to.

Assays:
[1] = cited from earlier work
Description: Adipose triglyceride lipase (ATGL) hydrolyzes TGs into diacylglycerols and FAs and is required for efficient intracellular lipolysis ([7]). Global inactivation of ATGL activity leads to massive TG accumulation in all tissues, including the heart of Atgl knock-out mice ([8]). Accordingly, patients with ATGL deficiency suffer from cardiac and skeletal muscle myopathy and require heart transplants at a relatively young age ([9]). However, genetic and small molecule-mediated inactivation of ATGL is also associated with beneficial effects on plasma lipid parameters and insulin sensitivity; Atgl-KO ... || Genetic disruption of Atgl results in severe heart defects due to massive TG accumulation in cardiac muscle ([8], [55]). Thus, the application of a synthetic, competitive ATGL inhibitor, such as Atglistatin, as a therapeutic tool appears limited. […] Th ...

[2] = tested on: TG hydrolase activity of WAT lysates from WT animals; experiment: TG hydrolase activity of WAT lysates of overnight fasted WT mice; format: biochemical, mouse
Description: (§1) Adipose tissue samples from overnight fasted wild-type and Atgl-KO mice were washed in PBS (137 mM NaCl, 2.7 mM KCl, 10 mM Na2HPO4, 2 mM KH2PO4) containing 1 mM EDTA and homogenized on ice in sucrose solution (see above) using an Ultra Turrax (IKA, Staufen, Germany).
FIGURE 4.

[3] = tested on: WAT TG hydrolase activity derived from Atgl-KO mice; experiment: TG hydrolase activity of WAT lysates of Atgl-KO mice; format: biochemical, mouse; settings: overnight fasted, 1.4 μM hGW2052, 40 μM Atglistatin, Fig. 4A
Description: as §1
FIGURE 4.

[4] = tested on: ATGL; settings: cited from earlier work
Description: Extensive research on the physiological role of ATGL has identified complex regulatory mechanisms for its activity on the transcriptional and post-translational level ([12], [13]). Direct protein-protein interaction of ATGL with the protein comparative gene identification 58 (CGI-58) increases ATGL activity up to 20-fold ([14]). Inhibition of ATGL due to direct interaction with the small, 103-amino acid protein G0/G1 switch gene 2 (G0S2) was discovered in 2010 and confirmed using human and murine proteins ([15][–][21]). The highest G0S2 expression is found in adipose tissues, but it is also pr ... || Activation of ATGL by CGI-58 is considered as fasting response upon β-adrenergic stimulation and phosphorylation of PKA ([12]). Recent studies have strengthened the role of G0S2 as the so-called master regulator of basal and stimulated lipolysis ([27]). mRNA levels of G0S2 respond strongly to hormonal stimuli, yet the dose-dependent inhibition of ATGL by G0S2 itself is reported to be independent of phosphorylation events ([18], [20], [21], [28], [29]). Thus, regulation of the expression levels of G0S2, and consequently the protein concentration, resembles a potent mean to regulate lipid mobili ... || Next, we investigated the specificity of the peptide hGW2052. ATGL and HSL together account for more than 95% of intracellular TG hydrolase activity in white adipose tissue (WAT) ([48]). For both enzymes, small molecule inhibitors are available. […] WAT lysates of WT and Atgl-KO mice were tested for TG hydrolase activity in the presence of Atglistatin, Hi 76–0079, and hGW2052. Addition of the ATGL inhibitors hGW2052 or Atglistatin redu ... || (+ 3 further places)

[5] = tested on: HSL; settings: ref [10], [48], [49]; cited from earlier work
Description: Next, we investigated the specificity of the peptide hGW2052. ATGL and HSL together account for more than 95% of intracellular TG hydrolase activity in white adipose tissue (WAT) ([48]). For both enzymes, small molecule inhibitors are available. […] WAT lysates of WT and Atgl-KO mice were tested for TG hydrolase activity in the presence of Atglistatin, Hi 76–0079, and hGW2052. Addition of the ATGL inhibitors hGW2052 or Atglistatin redu ... || To evaluate the specificity of the inhibitory peptide for ATGL, we analyzed the effect of hGW2052 on the activities of phospholipases, intracellular lipases, and extracellular lipases. ATGL belongs to the patatin domain containing family of proteins (PNPLA). […] Although PNPLA family members show high sequence conservation within their common patatin domain, no effects on lysophospholipase activities of PNPLA6 or PNPLA7 could b ...

[6] = tested on: mATGL; experiment: TG hydrolase activity, E. coli expressed mATGL, CGI-58 activated, hG0S2 truncations (Fig. 1C-E); format: biochemical, mouse; settings: mATGL E. coli extract (50 μg), 2.5 μg purified mCGI-58, 30 μg lysate of E. coli expressing hG0S2 variant, [3H]triolein, triplicates
Description: (§2) Protein concentrations were determined as described below.
(§3) FIGURE 1. Minimal sequence requirements of human G0S2 for ATGL inhibition. A, graphical representation of full-length and shortened versions of hG0S2, those capable of inhibiting ATGL activity are illustrated in black. The largely hydrophobic sequence stretch from Val-28 to Met-42 is depicted in light gray. B–E, activity assays were performed in the presence of CGI-58 as indicated by an asterisk (ATGL*). G0S2 and variants thereof were expressed in E. coli and added as cell lysates. Overexpressed mATGL from E. coli lysates was used for all assays with the exception of the assay shown in B. B, inhibition of TG hydrolase activity of mATGL containing COS-7 cell extracts by WT and C-terminally truncated hG0S2 variants. C, inhibition of TG hydrolase activity of mATGL by WT and C-terminally truncated hG0S2 variants. D, inhibition of TG hydrolase activity of mATGL by WT hG0S2 and variants with N-terminal deletions. E, effect of different N- and C-terminal truncations in hG0S2 on mATGL activity. The fusion tag smt3 is shown as control.

[7] = tested on: mATGL; experiment: TG hydrolase activity, COS-7 cell extracts containing mATGL, CGI-58 activated (Fig. 1B); format: biochemical, mouse; settings: COS-7 cell extract with mATGL, hG0S2 variants as E. coli cell lysates (30 μg), [3H]triolein substrate, triplicates
Description: as §2
Cells were harvested 48 h after transfection. […] Protein concentrations were determined as described below.
as §3

[8] = single administration to mice, ref [10]

reduction of TG hydrolase activity of WAT lysates ([2]; 40 μM Atglistatin, Fig. 4A): 49%
Compound: CN(C)C(=O)Nc1cccc(-c2ccc(N(C)C)cc2)c1 [Atglistatin]
plasma FA and TG concentrations ([1]; WT mice, ref [8], [10]): reduced plasma FA and TG concentrations
TG accumulation in tissues [1, 8]: TG accumulation in liver but not the heart
tissue accumulation of the inhibitor [1, 8]: accumulation of the inhibitor in liver and adipose tissues
inhibition of WAT TG hydrolase activity, Atgl-KO (result in words) [3]: Neither hGW2052 nor Atglistatin inhibited WAT TG hydrolase activity derived from Atgl-KO mice
IC50 for ATGL (in words) ([4]; Atglistatin elsewhere ref [10]): low micromolar range
dependence of ATGL inhibition on CGI-58 ([4]; ref [10], [13]): independent of the presence of CGI-58
mode of ATGL inhibition ([4]; ref [10], [13]): inhibits ATGL in a competitive manner
specificity of inhibition (in words), ATGL ([4]; ref [10], [48], [49]): act as specific inhibitors for ATGL and HSL, respectively

Compound: CN(C(=O)n1cncn1)c1ccccc1 [Hi 76-0079, N-methyl-phenyl carbamoyl triazole]
reduction of TG hydrolase activity of WAT lysates ([2]; 25 μM Hi 76-0079, Fig. 4A): 67%
specificity of inhibition (in words), HSL [5]: act as specific inhibitors for ATGL and HSL, respectively

Compound: CCCCCCCC/C=C\CCCCCCCC(=O)SCCNC(=O)CCNC(=O)[C@H](O)C(C)(C)COP(=O)(O)OP(=O)(O)OC[C@H]1O[C@@H](n2cnc3c(N)ncnc32)[C@H](O)[C@@H]1OP(=O)(O)O [oleoyl-CoA]
IC50 ([4]; ref [13]): 33 µM

Compound: hG0S2 Gly-30–Ala-52: N- and C-terminally truncated hG0S2, Gly-30–Ala-52 (GSVLALFGVVLGLMETVCSPFTA; UniProt P27469 30-52, looked up, fragment)
inhibition of TG hydrolase activity (result in words) [6]: had lost all inhibitory activity

Compound: hG0S2 Leu-10–Ala-52: N- and C-terminally truncated hG0S2, Leu-10–Ala-52 (LAKEMMAQKRKGKMVKLYVLGSVLALFGVVLGLMETVCSPFTA; UniProt P27469 10-52, looked up, fragment)
inhibition of TG hydrolase activity (result in words) [6]: fully retained their activity to inhibit ATGL

Compound: hG0S2 Lys-20–Met-43: N- and C-terminally truncated hG0S2, Lys-20–Met-43 (KGKMVKLYVLGSVLALFGVVLGLM; UniProt P27469 20-43, looked up, fragment)
inhibition of TG hydrolase activity (result in words) [6]: neither hG0S2 Tyr-27–Ala-52 nor hG0S2 Lys-20–Met-43 exhibited full inhibitory capacity
inhibition of TG hydrolase activity (result in words) ([6]; listed as Lys-20–Met-43): did not result in G0S2 variants that were able to inhibit ATGL efficiently

Compound: hG0S2 truncated at residue Leu-40: hG0S2 truncated at residue Leu-40 (C-terminal truncation) (METVQELIPLAKEMMAQKRKGKMVKLYVLGSVLALFGVVL; UniProt P27469 1-40, looked up, fragment)
inhibition of TG hydrolase activity (result in words) [7]: Inhibition was significantly reduced

Compound: hG0S2_1–43: C-terminally truncated hG0S2 variant Met-1–Met-43 (METVQELIPLAKEMMAQKRKGKMVKLYVLGSVLALFGVVLGLM; UniProt P27469 1-43, looked up, fragment)
inhibition of TG hydrolase activity (result in words) [6]: still exerts the full inhibitory effect on ATGL
inhibition of TG hydrolase activity (result in words) ([6]; listed as Met-1–Met-43): fully able to inhibit ATGL
